Data reported in patent publication US8859760B2, “Compositions for killing or preventing the growth of microbes” (priority 2008, dated 2014).

System: skin of the mice
Assay: Skin irritation test in mice (Draize scoring, Primary Irritation Index)
Format: in vivo, Balb/c mice
Conditions: for primary irritation index: 24 hr exposure, scored at 24 and 72 hours; for primary irritation index / evaluation of primary irritation index: mice; for mice with very slight erythema: n=6
Protocol: Lauryl methyl pyrifrin and TMP, two synthesized meso-substituted cationic porphyrins, were tested in vivo to determine the dermal irritation potential to the skin of the mice. The two test agents were prepared with three different concentrations individually, 3 μM, 30 μM, and 300 μM. 10% formic acid and PBS were used as positive and negative control respectively (n=6). […] The back of the animals were clipped free of fur with an electric clipper at least 4 hours before application of the sample. Prior to the application of test agents, each mouse received four parallel epidermal abrasions with a sterile needle at one side of the test area while the skin at the opposite side remained intact. Under anesthesia condition, a 0.5 ml sample of the test article was then applied to each mouse by introduction under a double gauze layer to an area of skin approximately 1″×1″ (2.54×2.54 cm) square. The patches were backed with plastic, covered with a non reactive tape and the entire test site wrapped with a binder. Animals will be returned to their cages. […] The Primary Irritation Index (P.I.I.) (sum of the scored reactions divided by 24 (two scoring intervals multiplied by two test parameters multiplied by six mice)) of the test article was calculated following test completion. A material producing a P.I.I. score of greater than or equal to 5.00 would be considered positive; the material would be considered a primary irritant to the skin (Table 2).

CCCCCCCCCCCC[n+]1ccc(-c2c3nc(c(-c4cc[n+](C)cc4)c4ccc([nH]4)c(-c4cc[n+](C)cc4)c4nc(c(-c5cc[n+](C)cc5)c5ccc2[nH]5)C=C4)C=C3)cc1.Cc1ccc(S(=O)(=O)[O-])cc1.Cc1ccc(S(=O)(=O)[O-])cc1.Cc1ccc(S(=O)(=O)[O-])cc1.Cc1ccc(S(=O)(=O)[O-])cc1 [lauryl methyl pyrifrin]
primary irritation index (3 μM): 0.00
evaluation of primary irritation index (3 μM): no irritation
primary irritation index (30 μM): 0.175
erythema observed (30 μM, after 24 hours, abraded area implied): very slight erythema
mice with very slight erythema (30 μM, after 24 hours): 2/6
erythema observed (30 μM, after 72 hours): very slight erythema
evaluation of primary irritation index (30 μM): irritation barely perceptible
primary irritation index (300 μM): 1.4
edema observed (300 μM, after 24 hours): Slight edema
erythema observed (300 μM, after 24 hours, abraded area implied): very slight erythema
mice with very slight erythema (300 μM, after 24 hours): 6/6
evaluation of primary irritation index (300 μM): slight irritation
erythema and edema at the intact area (intact area, all concentrations except 300 μM TMP): no erythema and edema
